Assay results reported in US20210046106A1, “METHODS OF TREATING CANCER WITH ANDROGEN DEPRIVATION THERAPY IN COMBINATION WITH AN INHIBITOR OF THE SP1 TRANSCRIPTION FACTOR” (The Board of Trustees of the Leland Stanford Junior …, priority 2019, published 2021).
Where “and” joins values, the source holds several entries; their conditions need not be identical. Equal entries are not always repeated. Entries after “also recorded” stand apart in the source; their conditions may differ.

What was measured:
[1] = Phase 1 trial of sodium selenite with palliative radiation therapy: adverse events / toxicity
From the text: Patients: This study was approved by the Food and Drug Administration (IND 122151), the Stanford University Internal Review Board, and the Scientific Review Committee for the Stanford Cancer Institute. […] The study was initially open only to prostate cancer patients, but then expanded to include a variety of tumor types. […] Before study entry, patients had to meet a number of eligibility criteria. Inclusion criteria included a) histologically-confirmed solid tumor malignancy with confirmation of metastasis, multiple myeloma, or plasmacytoma, b) need for palliative radiation therapy, c) for prostate cancer patients, PSA at least 2 ng/mL, except for patients who had recently started androgen deprivation therapy with PSA less than 2 ng/mL, d) […], e) life expectancy greater than 3 months, f) Eastern Cooperative Oncology Group (ECOG) performance status of zero or one or Karnofsky performance status 80%, and g) QT interval corrected using Fridericia's method (QTcF) <460 msec.
Patients were treated in groups of three with each receiving the same dose. […] Dose escalation was to proceed as follows: a) if none of the three patients experienced a dose limiting toxicity (DLT), dose escalation to the next dose level would occur, b) if one of three patients treated at that dose level experienced a DLT, that dose level would be expanded to six subjects; if no additional patient in that cohort experienced a DLT, dose escalation to the next dose level would occur, c) if two patients in a cohort experienced a DLT, dose escalation would stop and the prior dose would be considered the maximum tolerated dose (MTD). At that point the MTD was to be expanded to a total of six patients.
Baseline evaluations included EKG, PSA for prostate cancer patients, CBC with differential, CMP, LDH, bone scan (BS), or CT, PET/CT or MRI as clinically indicated to monitor response to therapy. Palliative radiation therapy utilized standard of care palliative dose/fractionation regimens. On Week 1, Day 1 patients underwent physical exam (PE), laboratory studies as above and EKG. All patients completed a pain inventory, the Brief Pain Inventory, prior to therapy. […] Weekly, during radiation therapy, patients had vital signs performed, with assessment of adverse events (AEs), labs and EKG if clinically indicated. The pain inventory was completed again on the last day of radiation therapy. Following completion of therapy, the first follow-up visit was within 2-3 months +/−2 weeks, with subsequent follow-up visits optional until progression of disease at the site of radiation. […] They also completed another pain inventory.

PSA = assay: Phase 1 trial: PSA in the subset of patients with prostate cancer; format: in vivo, human
From the text: There was no evidence of a selenite dose response relationship, but patient numbers were too small and the patients too heterogeneous to draw a definitive conclusion about the presence or absence of a dose response relationship. Of note, patients were maintained on whatever ADT they were on before study entry, as discontinuation of ADT could have been even more of a confounding variable.

[2] = 33 mg cohort, count-attribution

O=[Se](O)O [sodium selenite, Sodium selenite pentahydrate]
Abdominal pain grade 1: Number of Occurrences ([1]; 33 mg cohort): 3
Abdominal pain grade 1: Number of Subjects Affected ([1]; 33 mg cohort): 3
Anemia grade 3: Number of Occurrences ([1]; 33 mg cohort): 1
Anemia grade 3: Number of Subjects Affected ([1]; 33 mg cohort): 1
Anemia grade 3: Relation to Selenite ([1]; 33 mg cohort): Unrelated
Back Pain grade 1: Number of Occurrences ([1]; 33 mg cohort): 1
Back Pain grade 1: Number of Subjects Affected ([1]; 33 mg cohort): 1
Back Pain grade 1: Relation to Selenite ([1]; 33 mg cohort): Unrelated
Bone Pain grade 1: Number of Occurrences ([1]; 33 mg cohort): 1
Bone Pain grade 1: Number of Subjects Affected ([1]; 33 mg cohort): 1
Bone Pain grade 1: Relation to Selenite ([1]; 33 mg cohort): Unrelated
Diarrhea grade 1: Number of Occurrences ([1]; 33 mg cohort): 5
Diarrhea grade 1: Number of Subjects Affected ([1]; 33 mg cohort): 4
Dizziness grade 1: Number of Occurrences ([1]; 33 mg cohort): 1
Dizziness grade 1: Number of Subjects Affected ([1]; 33 mg cohort): 1
Dizziness grade 1: Relation to Selenite ([1]; 33 mg cohort): Probable
Dysphagia grade 1: Number of Occurrences ([1]; 33 mg cohort): 1
Dysphagia grade 1: Number of Subjects Affected ([1]; 33 mg cohort): 1
Dysphagia grade 1: Relation to Selenite ([1]; 33 mg cohort): Unrelated
Dyspnea grade 1: Number of Occurrences ([1]; 33 mg cohort): 1
Dyspnea grade 1: Number of Subjects Affected ([1]; 33 mg cohort): 1
Dyspnea grade 1: Relation to Selenite ([1]; 33 mg cohort): Unrelated
Dyspnea grade 2: Number of Occurrences ([1]; 33 mg cohort): 1
Dyspnea grade 2: Number of Subjects Affected ([1]; 33 mg cohort): 1
Dyspnea grade 2: Relation to Selenite ([1]; 33 mg cohort): Unrelated
ECG QTcF Prolonged grade 1: Number of Occurrences ([1]; 33 mg cohort): 2
ECG QTcF Prolonged grade 1: Number of Subjects Affected ([1]; 33 mg cohort): 2
ECG QTcF Prolonged grade 1: Relation to Selenite ([1]; 33 mg cohort): Probable
Facial Pain grade 1: Number of Occurrences ([1]; 33 mg cohort): 1
Facial Pain grade 1: Number of Subjects Affected ([1]; 33 mg cohort): 1
Facial Pain grade 1: Relation to Selenite ([1]; 33 mg cohort): Unrelated
Fall (Mechanical) grade 2: Number of Occurrences ([1]; 33 mg cohort): 2
Fall (Mechanical) grade 2: Number of Subjects Affected ([1]; 33 mg cohort): 1
Fall (Mechanical) grade 2: Relation to Selenite ([1]; 33 mg cohort): Unrelated
Fatigue grade 1: Number of Occurrences ([1]; 33 mg cohort): 2
Fatigue grade 1: Number of Subjects Affected ([1]; 33 mg cohort): 2
Fatigue grade 1: Relation to Selenite ([1]; 33 mg cohort): Possible
Fatigue grade 2: Number of Occurrences ([1]; 33 mg cohort): 2
Fatigue grade 2: Number of Subjects Affected ([1]; 33 mg cohort): 1
Fatigue grade 2: Relation to Selenite ([1]; 33 mg cohort): Unrelated,; also recorded: Possible
Flu-like Symptoms grade 1: Number of Occurrences ([1]; 33 mg cohort): 2
Flu-like Symptoms grade 1: Number of Subjects Affected ([1]; 33 mg cohort): 1
Flu-like Symptoms grade 1: Relation to Selenite ([1]; 33 mg cohort): Unrelated
Nausea grade 1: Number of Occurrences ([1]; 33 mg cohort): 8
Nausea grade 1: Number of Subjects Affected ([1]; 33 mg cohort): 5
Nausea grade 2: Number of Occurrences ([1]; 33 mg cohort): 1
Nausea grade 2: Number of Subjects Affected ([1]; 33 mg cohort): 1
Paresthesia grade 1: Number of Occurrences ([1]; 33 mg cohort): 1
Paresthesia grade 1: Number of Subjects Affected ([1]; 33 mg cohort): 1
Paresthesia grade 1: Relation to Selenite ([1]; 33 mg cohort): Unrelated
Sore Throat grade 1: Number of Occurrences ([1]; 33 mg cohort): 1
Sore Throat grade 1: Number of Subjects Affected ([1]; 33 mg cohort): 1
Sore Throat grade 1: Relation to Selenite ([1]; 33 mg cohort): Unrelated
Upper Respiratory Infection grade 1: Number of Occurrences ([1]; 33 mg cohort): 1
Upper Respiratory Infection grade 1: Number of Subjects Affected ([1]; 33 mg cohort): 1
Upper Respiratory Infection grade 1: Relation to Selenite ([1]; 33 mg cohort): Unrelated
Vomiting grade 1: Number of Occurrences ([1]; 33 mg cohort): 6
Vomiting grade 1: Number of Subjects Affected ([1]; 33 mg cohort): 2
Vomiting grade 2: Number of Occurrences ([1]; 33 mg cohort): 1
Vomiting grade 2: Number of Subjects Affected ([1]; 33 mg cohort): 1
Vomiting grade 2: Relation to Selenite ([1]; 33 mg cohort): Probable
Abdominal pain grade 1: Relation to Selenite [1, 2]: 1-Possible, and 2-Probably
Diarrhea grade 1: Relation to Selenite [1, 2]: 2-Possible, and 3-Probable
Vomiting grade 1: Relation to Selenite [1, 2]: 4-Probable, and 2-Unlikely
Nausea grade 1: Relation to Selenite ([1]; 33 mg cohort, printed 7-Probable, 1-Unrelated over four lines): Probable,; also recorded: Unrelated
Nausea grade 2: Relation to Selenite ([1]; 33 mg cohort, printed Probable/Definite over two lines): Probable/; also recorded: Definite
primary toxicities ([1]; 33 mg dose level): grade 1 GI side effects
QT prolongation ([1]; 33 mg dose level, ECG review): grade 1 QT prolongation in 2 patients; also recorded: two patients had grade 1 ECG QTcF prolongations; also recorded: within the range of expected intra-subject variability
primary toxicities ([1]; 33 mg dose level, listed as selenite): grade 1 GI side effects; also recorded: grade 1 GI toxicities
Back Pain grade 2: Number of Occurrences ([1]; 49.5 mg cohort): 1
Back Pain grade 2: Number of Subjects Affected ([1]; 49.5 mg cohort): 1
Back Pain grade 2: Relation to Selenite ([1]; 49.5 mg cohort): Unrelated
Diarrhea grade 2: Number of Occurrences ([1]; 49.5 mg cohort): 1
Diarrhea grade 2: Number of Subjects Affected ([1]; 49.5 mg cohort): 1
Diarrhea grade 2: Relation to Selenite ([1]; 49.5 mg cohort): Possible
Fatigue grade 1: Number of Occurrences ([1]; 49.5 mg cohort): 1
Fatigue grade 1: Number of Subjects Affected ([1]; 49.5 mg cohort): 1
Fatigue grade 1: Relation to Selenite ([1]; 49.5 mg cohort): Possible
Nausea grade 1: Number of Occurrences ([1]; 49.5 mg cohort): 1
Nausea grade 1: Number of Subjects Affected ([1]; 49.5 mg cohort): 1
Nausea grade 1: Relation to Selenite ([1]; 49.5 mg cohort): Probable
Nausea grade 2: Number of Occurrences ([1]; 49.5 mg cohort): 1
Nausea grade 2: Number of Subjects Affected ([1]; 49.5 mg cohort): 1
Nausea grade 2: Relation to Selenite ([1]; 49.5 mg cohort): Probable
Pain in Extremity grade 2: Number of Occurrences ([1]; 49.5 mg cohort): 1
Pain in Extremity grade 2: Number of Subjects Affected ([1]; 49.5 mg cohort): 1
Pain in Extremity grade 2: Relation to Selenite ([1]; 49.5 mg cohort): Unrelated
Vomiting grade 1: Number of Occurrences ([1]; 49.5 mg cohort): 1
Vomiting grade 1: Number of Subjects Affected ([1]; 49.5 mg cohort): 1
Vomiting grade 1: Relation to Selenite ([1]; 49.5 mg cohort): Probable
Vomiting grade 2: Number of Occurrences ([1]; 49.5 mg cohort): 1
Vomiting grade 2: Number of Subjects Affected ([1]; 49.5 mg cohort): 1
Vomiting grade 2: Relation to Selenite ([1]; 49.5 mg cohort): Probable
toxicity in the one patient at 49.5 mg ([1]; 49.5 mg dose level, 1 patient): grade 2 nausea/vomiting and diarrhea; also recorded: grade 2 GI toxicity; also recorded: grade 2 diarrhea, nausea and vomiting
toxicity / adverse events attributable to selenite ([1]; 5.5, 11 and 16.5 mg dose levels, oral 2 h before RT): no toxicity attributable to selenite; also recorded: no adverse events attributable to selenite; also recorded: no AEs attributable to the selenite
toxicities at all other dose levels ([1]; 33 and 49.5 mg dose levels): grade 1 and 2 GI toxicities
maximum tolerated dose (MTD) ([1]; doses 5.5 to 49.5 mg po/day with RT): not reached
highest acceptable / reasonably well tolerated dose ([1]; oral once daily with RT, ondansetron prn): 33 mg
PSA % Change (PSA; patient 2, 5.5 mg cohort, FU visit 2 M vs Day 1): −77.9%
PSA Value FU (PSA; patient 2, 5.5 mg cohort, FU visit 2 M, Day 1 PSA 39.83): 8.79 ng/mL
PSA % Change (PSA; patient 3, 5.5 mg cohort, FU visit 2.25 M vs Day 1): 6.2%
PSA Value FU (PSA; patient 3, 5.5 mg cohort, FU visit 2.25 M, Day 1 PSA 225): 239 ng/mL
PSA % Change (PSA; patient 4, 11 mg cohort, FU visit 3.25 M vs Day 1): −72.9%
PSA Value FU (PSA; patient 4, 11 mg cohort, FU visit 3.25 M, Day 1 PSA 131.83): 35.77 ng/mL
PSA % Change (PSA; patient 5, 11 mg cohort, FU visit 4 M vs Day 1): −52.6%
PSA Value FU (PSA; patient 5, 11 mg cohort, FU visit 4 M, Day 1 PSA 40.61): 19.25 ng/mL
PSA % Change (PSA; patient 6, 11 mg cohort, FU visit 4 M vs Day 1): −67.3%
PSA Value FU (PSA; patient 6, 11 mg cohort, FU visit 4 M, Day 1 PSA 0.98): 0.32 ng/mL
PSA % Change (PSA; patient 7, 16.5 mg cohort, FU visit 2.25 M vs Day 1): 1155.7%
PSA Value FU (PSA; patient 7, 16.5 mg cohort, FU visit 2.25 M, Day 1 PSA 1.74): 21.85 ng/mL
PSA % Change (PSA; patient 8, 16.5 mg cohort, FU visit 2.75 M vs Day 1): −59.4%
PSA Value FU (PSA; patient 8, 16.5 mg cohort, FU visit 2.75 M, Day 1 PSA 3.3): 1.34 ng/mL
PSA % Change (PSA; patient 9, 16.5 mg cohort, FU visit 3.25 M vs Day 1): −11%
PSA Value FU (PSA; patient 9, 16.5 mg cohort, FU visit 3.25 M, Day 1 PSA 1): 0.89 ng/mL
PSA % Change (PSA; patient 10, 33 mg cohort, FU visit 3 M vs Day 1): −67.1%
PSA Value FU (PSA; patient 10, 33 mg cohort, FU visit 3 M, Day 1 PSA 196): 64.46 ng/mL
decrease in PSA, range (PSA; the seven of nine prostate cancer patients with a decrease, first follow up 2-4 months after RT): 11-78%
